According to US10577363B2, “Substituted piperidine compounds” (EPIZYME, INC., priority 2014, dated 2020):

Experiments:
[1] = target: T1, SMYD3 (Homo sapiens (Human), UniProt Q9H7B4); experiment: SMYD3 biochemical assay (SPA, 3H-SAM methylation of MEKK2 protein substrate); conditions: read-out: SMYD3 Biochem IC50*
In short: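 Full-length native human SMYD3 (E. coli-expressed, tags removed) preincubated with compounds 30 min at room temperature, then reaction started with 3H-SAM and GST-tagged MEKK2 protein in 25 mM Tris-Cl pH 8.0, 1 mM TCEP, 0.005% BSG, 0.005% Tween 20. Quenched with unlabelled SAM (100 uM final); 3H-MEKK2 counted by SPA.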

[2] = target: T1, SMYD3; experiment: SMYD3 cell assay (Trimethyl-MEKK2 In-Cell Western in 293T/17 cells); format: cell-based; conditions: read-out: SMYD3 Cell IC50*
In short: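 In-Cell Western ratio of trimethyl-Lys260 MEKK2 to anti-flag signal; percent inhibition from DMSO and maximum-inhibition controls, IC50 by non-linear regression, triplicates.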

T1 sequence (Q9H7B4 whole entry): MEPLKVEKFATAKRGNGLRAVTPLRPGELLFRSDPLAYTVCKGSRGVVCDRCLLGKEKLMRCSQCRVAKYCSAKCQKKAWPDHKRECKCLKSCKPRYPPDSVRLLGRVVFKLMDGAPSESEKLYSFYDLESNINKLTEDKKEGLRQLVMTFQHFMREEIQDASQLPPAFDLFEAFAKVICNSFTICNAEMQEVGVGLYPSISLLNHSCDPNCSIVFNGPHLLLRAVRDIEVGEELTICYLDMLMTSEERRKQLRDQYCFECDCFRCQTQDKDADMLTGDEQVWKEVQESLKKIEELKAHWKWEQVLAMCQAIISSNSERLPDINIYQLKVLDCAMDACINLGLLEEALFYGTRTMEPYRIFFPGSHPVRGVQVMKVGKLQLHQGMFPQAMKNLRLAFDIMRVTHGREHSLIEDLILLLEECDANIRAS

Row | Compound | IC50 [1] [nM] | IC50 [2] [nM]
1 | C[C@H]1C[C@@H](NC(=O)c2cc(C3CC3)on2)CCN1S(=O)(=O)CC[C@@H]1CCNC1 [compound 841, 5-cyclopropyl-N-((2S,4S)-2-methyl-1-((2-((S)-pyrrolidin-3-yl)ethyl)sulfonyl)piperidin-4-yl)isoxazole-3-carboxamide] | 5.05 | 124
2 | C[C@H](C1CCNCC1)S(=O)(=O)N1[C@@H]2CC[C@H]1C[C@@H](NC(=O)c1cc(C3CC3)on1)C2 [compound 842, 5-cyclopropyl-N-((1R,3R,5S)-8-(((R)-1-(piperidin-4-yl)ethyl)sulfonyl)-8-azabicyclo[3.2.1]octan-3-yl)isoxazole-3-carboxamide] | 5.1 | 29
3 | CC(C)CNC1CCN(S(=O)(=O)N2CC[C@H](NC(=O)c3cc(C4CC4)on3)C[C@@H]2C)CC1 [compound 843, 5-cyclopropyl-N-((2S,4S)-1-((4-(isobutylamino)piperidin-1-yl)sulfonyl)-2-methylpiperidin-4-yl)isoxazole-3-carboxamide] | 5.11 | 77.7
4 | CN(CCc1ccccc1)C1CCN(S(=O)(=O)N2[C@@H]3CC[C@H]2C[C@@H](NC(=O)c2cc(C4CC4)on2)C3)CC1 [compound 844, 5-cyclopropyl-N-((1R,3r,5S)-8-((4-(methyl(phenethyl)amino)piperidin-1-yl)sulfonyl)-8-azabicyclo[3.2.1]octan-3-yl)isoxazole-3-carboxamide] | 5.28 | 305
5 | O=C(N[C@H]1C[C@H]2CC[C@@H](C1)N2S(=O)(=O)N1CCC(NCCCO)CC1)c1cc(C2CC2)on1 [compound 845, 5-cyclopropyl-N-((1R,3r,5S)-8-((4-((3-hydroxypropyl)amino)piperidin-1-yl)sulfonyl)-8-azabicyclo[3.2.1]octan-3-yl)isoxazole-3-carboxamide] | 5.3 | 86.3
6 | CC(C)CCN(C)C1CCN(S(=O)(=O)N2[C@@H]3CC[C@H]2C[C@@H](NC(=O)c2cc(C4CC4)on2)C3)CC1 [compound 846, 5-cyclopropyl-N-((1R,3r,5S)-8-((4-(isopentyl(methyl)amino)piperidin-1-yl)sulfonyl)-8-azabicyclo[3.2.1]octan-3-yl)isoxazole-3-carboxamide] | 5.36 | 80.2
7 | C[C@H]1C[C@@H](NC(=O)c2cc(C3CC3)on2)CCN1S(=O)(=O)N1CCC(N2CCCC2)CC1 [compound 847, 5-cyclopropyl-N-((2S,4S)-2-methyl-1-((4-(pyrrolidin-1-yl)piperidin-1-yl)sulfonyl)piperidin-4-yl)isoxazole-3-carboxamide] | 5.53 | 75.8
8 | O=C(N[C@H]1C[C@H]2CC[C@@H](C1)N2S(=O)(=O)N1CCC(NCc2ccc(F)cc2)CC1)c1cc(C2CC2)on1 [compound 848, 5-cyclopropyl-N-((1R,3r,5S)-8-((4-((4-fluorobenzyl)amino)piperidin-1-yl)sulfonyl)-8-azabicyclo[3.2.1]octan-3-yl)isoxazole-3-carboxamide] | 5.73 | 153
9 | O=C(N[C@H]1C[C@H]2CC[C@@H](C1)N2S(=O)(=O)N1CCC2(CCN2)CC1)c1cc(C2CC2)on1 [compound 849, N-((1R,3r,5S)-8-((1,7-diazaspiro[3.5]nonan-7-yl)sulfonyl)-8-azabicyclo[3.2.1]octan-3-yl)-5-cyclopropylisoxazole-3-carboxamide] | 5.95 | 62
10 | O=C(N[C@H]1C[C@H]2CC[C@@H](C1)N2S(=O)(=O)N1CC2CCC(C1)N2CCCO)c1cc(C2CC2)on1 [compound 850, 5-cyclopropyl-N-((1R,3r,5S)-8-((8-(3-hydroxypropyl)-3,8-diazabicyclo[3.2.1]octan-3-yl)sulfonyl)-8-azabicyclo[3.2.1]octan-3-yl)isoxazole-3-carboxamide] | 6.21 | 58.8
11 | COCCN(C)C1CCN(S(=O)(=O)N2CC[C@H](NC(=O)c3cc(C4CC4)on3)C[C@@H]2C)CC1 [compound 851, 5-cyclopropyl-N-((2S,4S)-1-((4-((2-methoxyethyl)(methyl)amino)piperidin-1-yl)sulfonyl)-2-methylpiperidin-4-yl)isoxazole-3-carboxamide] | 6.44 | 125
12 | CCN(C)C1CCN(S(=O)(=O)N2[C@@H]3CC[C@H]2C[C@@H](NC(=O)c2cc(C4CC4)on2)C3)CC1 [compound 852, 5-cyclopropyl-N-((1R,3r,5S)-8-((4-(ethyl(methyl)amino)piperidin-1-yl)sulfonyl)-8-azabicyclo[3.2.1]octan-3-yl)isoxazole-3-carboxamide] | 6.5 | 114
13 | CC(C)CNC1CCN(S(=O)(=O)N2[C@@H]3CC[C@H]2C[C@@H](NC(=O)c2cc(C4CC4)on2)C3)CC1 [compound 853, 5-cyclopropyl-N-((1R,3r,5S)-8-((4-(isobutylamino)piperidin-1-yl)sulfonyl)-8-azabicyclo[3.2.1]octan-3-yl)isoxazole-3-carboxamide] | 6.55 | 71
14 | O=C(N[C@H]1C[C@H]2CC[C@@H](C1)N2S(=O)(=O)N1CC2CCC1CN2)c1cc(C2CC2)on1 [compound 855, N-((1R,3r,5S)-8-((2,5-diazabicyclo[2.2.2]octan-2-yl)sulfonyl)-8-azabicyclo[3.2.1]octan-3-yl)-5-cyclopropylisoxazole-3-carboxamide] | 7.06 | 68.7
15 | O=C(N[C@H]1C[C@H]2CC[C@@H](C1)N2S(=O)(=O)N1CCNCC1)c1cc(C2CC2)on1 [compound 856, 5-cyclopropyl-N-((1R,3r,5S)-8-(piperazin-1-ylsulfonyl)-8-azabicyclo[3.2.1]octan-3-yl)isoxazole-3-carboxamide] | 7.09 | 46.7
16 | CC1CC(CS(=O)(=O)N2[C@@H]3CC[C@H]2C[C@@H](NC(=O)c2cc(C4CC4)on2)C3)CC(C)N1 (stereo partly drawn) [compound 857, 5-cyclopropyl-N-((1R,3r,5S)-8-(((2,6-dimethylpiperidin-4-yl)methyl)sulfonyl)-8-azabicyclo[3.2.1]octan-3-yl)isoxazole-3-carboxamide] | 7.09 | 130
17 | C[C@H]1C[C@@H](NC(=O)c2cc(C3CC3)on2)CCN1S(=O)(=O)CC[C@H]1CCNC1 [compound 858, 5-cyclopropyl-N-((2S,4S)-2-methyl-1-((2-((R)-pyrrolidin-3-yl)ethyl)sulfonyl)piperidin-4-yl)isoxazole-3-carboxamide] | 7.2 | 172
18 | O=C(N[C@H]1C[C@H]2CC[C@@H](C1)N2S(=O)(=O)[C@H]1CC[C@H](NCCN2CCOCC2)CC1)c1cc(C2CC2)on1 [compound 859, 5-cyclopropyl-N-((1R,3R,5S)-8-(((1r,4R)-4-((2-morpholinoethyl)amino)cyclohexyl)sulfonyl)-8-azabicyclo[3.2.1]octan-3-yl)isoxazole-3-carboxamide] | 7.43 | 209
19 | CC(C)CN(C)C1CCN(S(=O)(=O)N2[C@@H]3CC[C@H]2C[C@@H](NC(=O)c2cc(C4CC4)on2)C3)CC1 [compound 860, 5-cyclopropyl-N-((1R,3r,5S)-8-((4-(isobutyl(methyl)amino)piperidin-1-yl)sulfonyl)-8-azabicyclo[3.2.1]octan-3-yl)isoxazole-3-carboxamide] | 7.52 | 139
